{"source": "patent EP0021678B1", "about": "“1-Sulpho-2-oxoazetidine derivatives, their production and pharmaceutical compositions thereof” (Takeda Chemical Industries, Ltd., priority 1979, dated 1981)", "experiment_in_all_cases": "Anti-bacterial test, minimum inhibitory concentration on agar", "format_in_all_cases": "cell-based", "key": {"[1]": {"system": "Acinetobacter calcoaceticus IFO 13006", "details": "Acinetobacter calcoaceticus IFO 13006; medium TSA", "method_in_brief": "(§1)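 Minimum inhibitory concentrations were determined by agar dilution. The growth media were Trypticase soy agar (TSA) and blood Trypticase soy agar (B-TSA).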"}, "[2]": {"system": "Bordetella bronchiseptica Sagami", "details": "Bordetella bronchiseptica Sagami; medium B—TSA", "method_in_brief": "as §1"}, "Candida albicans TA": {"system": "Candida albicans TA", "details": "Candida albicans TA; medium TSA", "method_in_brief": "as §1"}, "[3]": {"system": "Citrobacter freundii IFO 12681", "details": "Citrobacter freundii IFO 12681; medium TSA", "method_in_brief": "as §1"}, "[4]": {"system": "Corynebacterium diphtheriae Toronto", "details": "Corynebacterium diphtheriae Toronto; medium B—TSA", "method_in_brief": "as §1"}, "[5]": {"system": "Enterobacter cloacae IFO 12937", "details": "Enterobacter cloacae IFO 12937; medium TSA", "method_in_brief": "as §1"}, "[6]": {"system": "Escherichia coli NIHJ JC—2", "details": "Escherichia coli NIHJ JC—2; medium TSA", "method_in_brief": "as §1"}, "Escherichia coli O—111": {"system": "Escherichia coli O—111", "details": "medium TSA", "method_in_brief": "as §1"}, "Escherichia coli T-7": {"system": "Escherichia coli T-7", "details": "medium TSA", "method_in_brief": "as §1"}, "Klebsiella pneumoniae DT": {"system": "Klebsiella pneumoniae DT", "details": "Klebsiella pneumoniae DT; medium TSA", "method_in_brief": "as §1"}, "[7]": {"system": "Proteus mirabilis IFO 3849", "details": "Proteus mirabilis IFO 3849; medium TSA", "method_in_brief": "as §1"}, "[8]": {"system": "Proteus morganii IFO 3168", "details": "Proteus morganii IFO 3168; medium TSA", "method_in_brief": "as §1"}, "[9]": {"system": "Proteus vulgaris IFO 3988", "details": "Proteus vulgaris IFO 3988; medium TSA", "method_in_brief": "as §1"}, "[10]": {"system": "Pseudomonas aeruginosa IFO 3455", "details": "Pseudomonas aeruginosa IFO 3455; medium TSA", "method_in_brief": "as §1"}, "[11]": {"system": "Pseudomonas aeruginosa U 31", "details": "Pseudomonas aeruginosa U 31; medium TSA", "method_in_brief": "as §1"}, "[12]": {"system": "Serratia marcescens IFO 12648", "details": "Serratia marcescens IFO 12648; medium TSA", "method_in_brief": "as §1"}, "[13]": {"system": "Staphylococcus aureus 1840", "details": "Staphylococcus aureus 1840; medium TSA", "method_in_brief": "as §1"}, "[14]": {"system": "Staphylococcus aureus 308A—1", "details": "Staphylococcus aureus 308A—1; medium TSA", "method_in_brief": "as §1"}, "[15]": {"system": "Staphylococcus aureus FDA209P", "details": "Staphylococcus aureus FDA209P", "method_in_brief": "as §1"}, "[16]": {"system": "Streptococcus faecium IFO 3128", "details": "Streptococcus faecium IFO 3128; medium B—TSA", "method_in_brief": "as §1"}, "[17]": {"system": "Streptococcus mitis America", "details": "Streptococcus mitis America; medium B—TSA", "method_in_brief": "as §1"}, "[18]": {"system": "Streptococcus pneumoniae Type I", "details": "Streptococcus pneumoniae Type I; medium B—TSA", "method_in_brief": "as §1"}, "[19]": {"system": "Streptococcus pyogenes E—14", "details": "Streptococcus pyogenes E—14; medium B—TSA", "method_in_brief": "as §1"}, "[20]": {"system": "Streptococcus pyogenes S—8", "details": "Streptococcus pyogenes S—8; medium B—TSA", "method_in_brief": "as §1"}}, "data": [{"smiles": "O=C(NC1CN(S(=O)(=O)[O-])C1=O)C(NC(=O)N1CCN(N=Cc2ccco2)C1=O)c1cccs1.[Na+]", "note": "(stereo not shown) [Compound L, Sodium 3-[2-[(2-oxo-3-furfurylideneaminoimidazolidin-1-yl)-carboxamido]-2-thienylacetamido]-2-oxoazetidine-1-sulphonate]", "values": [{"measurement": "Minimum inhibitory concentration", "setting": "[1]", "value": 50, "unit": "µg/mL"}, {"measurement": "Minimum inhibitory concentration", "setting": "[2]", "value": ">100", "unit": "µg/mL"}, {"measurement": "Minimum inhibitory concentration", "setting": "Candida albicans TA", "value": ">100", "unit": "µg/mL"}, {"measurement": "Minimum inhibitory concentration", "setting": "[3]", "value": 1.56, "unit": "µg/mL"}, {"measurement": "Minimum inhibitory concentration", "setting": "[4]", "value": 1.56, "unit": "µg/mL"}, {"measurement": "Minimum inhibitory concentration", "setting": "[5]", "value": 25, "unit": "µg/mL"}, {"measurement": "Minimum inhibitory concentration", "setting": "[6]", "value": 1.56, "unit": "µg/mL"}, {"measurement": "Minimum inhibitory concentration", "setting": "Escherichia coli O—111", "value": "<0.1", "unit": "µg/mL"}, {"measurement": "Minimum inhibitory concentration", "setting": "Escherichia coli T-7", "value": ">100", "unit": "µg/mL"}, {"measurement": "Minimum inhibitory concentration", "setting": "Klebsiella pneumoniae DT", "value": "<0.1", "unit": "µg/mL"}, {"measurement": "Minimum inhibitory concentration", "setting": "[7]", "value": 0.78, "unit": "µg/mL"}, {"measurement": "Minimum inhibitory concentration", "setting": "[8]", "value": 12.5, "unit": "µg/mL"}, {"measurement": "Minimum inhibitory concentration", "setting": "[9]", "value": 0.2, "unit": "µg/mL"}, {"measurement": "Minimum inhibitory concentration", "setting": "[10]", "value": 3.13, "unit": "µg/mL"}, {"measurement": "Minimum inhibitory concentration", "setting": "[11]", "value": ">100", "unit": "µg/mL"}, {"measurement": "Minimum inhibitory concentration", "setting": "[12]", "value": 1.56, "unit": "µg/mL"}, {"measurement": "Minimum inhibitory concentration", "setting": "[13]", "value": 25, "unit": "µg/mL"}, {"measurement": "Minimum inhibitory concentration", "setting": "[14]", "value": 3.13, "unit": "µg/mL"}, {"measurement": "Minimum inhibitory concentration", "setting": "[15]; medium B—TSA", "value": 6.25, "unit": "µg/mL"}, {"measurement": "Minimum inhibitory concentration", "setting": "[15]; medium TSA", "value": 6.25, "unit": "µg/mL"}, {"measurement": "Minimum inhibitory concentration", "setting": "[16]", "value": ">100", "unit": "µg/mL"}, {"measurement": "Minimum inhibitory concentration", "setting": "[17]", "value": 6.25, "unit": "µg/mL"}, {"measurement": "Minimum inhibitory concentration", "setting": "[18]", "value": 1.56, "unit": "µg/mL"}, {"measurement": "Minimum inhibitory concentration", "setting": "[19]", "value": 0.78, "unit": "µg/mL"}, {"measurement": "Minimum inhibitory concentration", "setting": "[20]", "value": 0.78, "unit": "µg/mL"}]}]}
